Experimental findings from patent publication US9187749B2, “Methods for modulating factor 12 expression” (Isis Pharmaceuticals, Inc., priority 2011, dated 2015) are described below.

Data set [1] deals with mice. Description: Vascular leakage, Evans Blue in plasma, captopril-induced (Example 4). Type of data set: in vivo, mouse. As to conditions: HOE-140 30 μg ip, percentage increase or decrease vs Group 1 PBS. The procedure:
Groups 4, 5, 6, 7, 8, and 9 consisted of 8 mice each and were treated with 2.5 mg/kg, 5 mg/kg, 10 mg/kg, 20 mg/kg, 40 mg/kg, or 80 mg/kg (corresponding to 5 mg/kg, 10 mg/kg, 20 mg/kg, 40 mg/kg, 80 mg/kg, or 160 mg/kg per week), respectively, of ISIS 410944 administered subcutaneously twice a week for 3 weeks. At the end of the treatment period, the mice of all the groups were intraperitoneally administered 20 μg of captopril. Groups 4-9 served as the experimental treatment groups for examining the effect of varying doses of ISIS 410944 on captopril-induced vascular permeability.
All the groups were then injected with 30 mg/kg of Evans Blue solution in the tail vein. The mice were sacrificed 30 min after the Evans Blue solution administration and colons, feet, ears, and intestines were harvested. Blood samples were taken through cardiac puncture.
The blood drawn through cardiac puncture was immediately mixed with 3 times the volume of ice-cold ethanol. The solution was centrifuged at 15,000 g for 20 minutes at 4° C. to remove cell debris and precipitated plasma proteins. The ethanol extracts were further purified by ultra-filtration through a 10 kDa MWCO filter. The color intensity of the ethanol extracted plasma solution was then measured at OD620nm. The results are presented in Table 7 as percentage increase or decrease of the OD values of the Group 1 PBS control.

For a further data set, the system named is C1-INH mRNA. The data set is described as follows: Liver RT-PCR of C1-INH mRNA, C1-INH ASO-induced angioedema model (Example 9). Format: in vivo, mouse. The note with it: all groups given ISIS 461756 12.5 mg/kg sc twice a week, test ASO 40 mg/kg sc twice a week 3 weeks, vs PBS control not treated with ISIS 461756. The procedure:
(§1) Vascular permeability induced by ISIS 461756, an antisense oligonucleotide which targets murine C1 inhibitor mRNA, increases vascular permeability in mice and replicates the pathology of hereditary angioedema. The effect of ISIS 410944 on this model was evaluated.
(§2) One group of 8 mice was treated with 40 mg/kg ISIS 410944 administered subcutaneously twice a week for 3 weeks (weekly dose of 80 mg/kg). A second group of 8 mice was treated with 40 mg/kg of the control oligonucleotide, ISIS 141923, administered subcutaneously twice a week for 3 weeks (weekly dose of 80 mg/kg). A third group of 8 mice was treated with PBS administered subcutaneously twice a week for 3 weeks. On day 14, all the groups were treated with 12.5 mg/kg ISIS 461756 administered subcutaneously twice a week for 3 weeks (weekly dose of 25 mg/kg). A control group of mice was treated with PBS administered subcutaneously twice a week for 3 weeks but was not administered ISIS 461756.
(§3) At the end of the treatment period, all the groups were injected with 30 mg/kg of Evans Blue solution into the tail vein. The mice were sacrificed 30 min after the Evans Blue solution administration and colons, feet, ears, and intestines were harvested. The liver was also harvested for RNA analysis.
(§4) RNA was isolated from the liver for RT-PCR analysis of C1-INH and Factor 12 mRNAs. […]

For another data set, the system named is Factor 12 mRNA. The data set is described as follows: Liver RT-PCR of Factor 12 mRNA, C1-INH ASO-induced angioedema model (Example 9). Type of data set: in vivo, mouse. As to conditions: all groups given ISIS 461756 12.5 mg/kg sc twice a week, test ASO 40 mg/kg sc twice a week 3 weeks, vs PBS control not treated with ISIS 461756. The procedure:
as §1, §2, §3, §4

Data set [2] has as its system mice. Description: Evans Blue vascular permeability, ISIS 461756-induced model (Example 9). Format: in vivo, mouse. As to conditions: all groups given ISIS 461756 12.5 mg/kg sc twice a week; test ASO 40 mg/kg sc twice a week 3 weeks; vs untreated PBS control. Here is the method: as §1, §2, §3
The harvested tissues from the feet, colon, and intestine were placed in formamide solution overnight to leach out the Evans Blue dye. The formamide solution containing feet tissue was heated to 55° C. and left overnight. The color intensity of the dye-infused formamide solution was then measured at OD600nm. The data is presented in Table 20 as percent increase or reduction compared to the PBS control not treated with ISIS 461756.

The subject of the next data set is Factor 12. Description: Spectrozyme Factor 12a based amidolytic assay for Factor 12 activation in plasma (Example 8). Type of data set: in vivo. As to conditions: mouse plasma; for % F12 activation compared to the PBS control: dextran sulfate. Here is the method:
The effect of antisense inhibition of kallikrein (KLKB1) mRNA on Factor 12 protein activation was evaluated.
Group 1 consisted of 8 mice and was treated with PBS administered subcutaneously twice a week for 3 weeks. No other treatment was administered to Group 1 which served as a control group to measure Factor 12 activation.
Groups 2, 3, 4, 5, and 6 consisted of 8 mice each and were treated with 2.5 mg/kg, 5 mg/kg, 10 mg/kg, 20 mg/kg, or 40 mg/kg (corresponding to 5 mg/kg, 10 mg/kg, 20 mg/kg, 40 mg/kg, or 80 mg/kg per week), respectively of ISIS 482584 administered subcutaneously twice a week for 3 weeks. Groups 2-6 served as the treatment groups for measuring the effect of ISIS 482584 on Factor 12 activation.
At the end of the treatment period, plasma was harvested from the mice for the Spectrozyme® Factor 12a based amidolytic assay for Factor 12 in plasma.
Plasma (5 μL) was added to 85 μL of PBS with 1 ug/ml dextran sulfate (500 kDa) in a 96 well polypropelene microplate and the solution was incubated for 5 minutes at room temperature. Spectrozyme® FXIIa (10 μL of a 2 mM solution) and 0.2 mM KALLISTOP™ solution was added and the absorbance kinetic was measured at 405 nm. Factor 12 activation was measured in the linear phase of absorbance accumulation. The results are presented in Table 18 as a percentage of Factor 12 activation measured in the PBS control sample.

e = 2'-O-(2-methoxyethyl) (MOE); d = 2'-deoxy (DNA)

With HOE-140, the “Percentage of OD620 nm of Evans Blue dye compared to the PBS basal control to measure vascular leakage, Plasma” value with mice [1] is given as 70%.
“ISIS 141923: control oligonucleotide, a 5-10-5 MOE gapmer with no known murine target, CCTTCCCTGAAGGTTCCTCC; SEQ ID NO: 38 (sugars from the 5' end e5 d10 e5, backbone and methylation of C not given here)”: the “Percent inhibition of mRNA expression, C1-INH mRNA” value in the data set on C1-INH mRNA is listed as 79%. Also, the “Percent inhibition of mRNA expression, Factor 12 mRNA” value with Factor 12 mRNA turned out to be 0%. For the same substance, in the data set with mice [2], the “Percent change in vascular permeability, Colon” value is recorded as 2%; the “Percent change in vascular permeability, Feet” value stood at 80%; the “Percent change in vascular permeability, Intestines” value is 14%.
Turning to “ISIS 461756: 5-10-5 MOE gapmer AAAGTGGTTGATACCCTGGG (SEQ ID NO: 37) which targets murine C1 inhibitor mRNA; induces vascular permeability (sugars from the 5' end e5 d10 e5, backbone and methylation of C not given here)”, the “Percent inhibition of mRNA expression, Factor 12 mRNA” value in the data set with Factor 12 mRNA was determined as 0%. In addition, in the data set on mice [2], the “Percent change in vascular permeability, Colon” value is 13%; the “Percent change in vascular permeability, Feet” value was 70%; the “Percent change in vascular permeability, Intestines” value stood at 27%.
As for “ISIS 482584: 5-10-5 MOE gapmer targeting kallikrein (KLKB1), GGCATATTGGTTTTTGGAAT; SEQ ID NO: 39 (sugars from the 5' end e5 d10 e5, backbone and methylation of C not given here)”, the “% F12 activation compared to the PBS control” value was found to be 82% with Factor 12 (5 mg/kg/wk sc 3 weeks); 63% in the data set with Factor 12 (10 mg/kg/wk sc 3 weeks); 47% in the data set on Factor 12 (20 mg/kg/wk sc 3 weeks); 24% in the data set with Factor 12 (40 mg/kg/wk sc 3 weeks); 14% in the data set on Factor 12 (80 mg/kg/wk sc 3 weeks). The “activation of Factor 12” value in the data set on Factor 12 (5-80 mg/kg/wk sc 3 weeks) is recorded as “decreased activation of Factor 12”.
